Experimental data taken from ChEMBL document CHEMBL5252673, “Development of thiazole-appended novel hydrazones as a new class of α-amylase inhibitors with anticancer assets: an in silico and in vitro approach” (RSC Med Chem, 2023).

Columns and labels:
MDA-MB-231 = test: Antiproliferative activity against human MDA-MB-231 cells assessed as inhibition of cell growth incubated for 48 hrs by MTT assay; format: functional, cell-based; conditions: MDA-MB-231, 48 h
HCT-116 = test: Antiproliferative activity against human HCT-116 cells assessed as inhibition of cell growth incubated for 48 hrs by MTT assay; format: functional, cell-based; conditions: HCT-116, 48 h
Alpha amylase [1] = target: T1, Alpha amylase (Homo sapiens, UniProt P0DUB6); test: Inhibition of alpha-amylase (unknown origin) using starch as substrate preincubated with substrate for 15 mins followed by compound addition and measured after 15 mins by UV-VIS spectrophotometric analysis
T1 sequence (P0DUB6 whole entry): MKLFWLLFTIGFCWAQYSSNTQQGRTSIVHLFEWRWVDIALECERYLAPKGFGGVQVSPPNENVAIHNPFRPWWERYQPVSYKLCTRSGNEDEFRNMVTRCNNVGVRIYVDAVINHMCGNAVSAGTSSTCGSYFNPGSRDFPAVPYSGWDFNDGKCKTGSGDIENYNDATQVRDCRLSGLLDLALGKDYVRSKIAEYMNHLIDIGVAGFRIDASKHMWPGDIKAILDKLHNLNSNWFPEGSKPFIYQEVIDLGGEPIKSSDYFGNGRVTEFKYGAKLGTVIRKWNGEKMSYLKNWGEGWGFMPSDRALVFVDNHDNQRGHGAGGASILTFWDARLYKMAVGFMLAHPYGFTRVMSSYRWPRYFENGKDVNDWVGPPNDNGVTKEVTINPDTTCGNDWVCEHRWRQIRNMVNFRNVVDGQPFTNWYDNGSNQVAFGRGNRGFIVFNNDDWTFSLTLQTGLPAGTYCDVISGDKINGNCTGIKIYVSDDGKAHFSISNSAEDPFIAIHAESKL

A549 [2] = test: Antiproliferative activity against human A549 cells assessed as inhibition of cell growth incubated for 48 hrs by MTT assay; format: functional, cell-based; conditions: A549, 48 h
Alpha amylase [3] = target: T1, Alpha amylase; test: Inhibition of alpha-amylase (unknown origin) using p-nitrophenylR-D-maltoside as substrate incubated for 30 mins by […]
Alpha amylase [4] = target: T1, Alpha amylase; test: Inhibition of alpha-amylase (unknown origin)
[5] = tested on: O=C(N/N=C/c1ccc(Cl)cc1)c1csc(Nc2ccc([N+](=O)[O-])cc2)n1; test: (§1) Uncompetitive inhibition of alpha-amylase (unknown origin) using starch as substrate assessed as decrease in Vmax incubated for 30 mins by UV-visible spectrophotometric analysis; conditions: Homo sapiens
[6] = tested on: O=C(N/N=C/c1ccc(O)cc1)c1csc(Nc2ccc([N+](=O)[O-])cc2)n1; test: as §1; conditions: Homo sapiens
[7] = tested on: COc1cc(/C=N/NC(=O)c2csc(Nc3ccc([N+](=O)[O-])cc3)n2)cc(OC)c1OC; test: as §1; conditions: Homo sapiens
[8] = tested on: COc1cc(/C=N/NC(=O)c2csc(Nc3ccc([N+](=O)[O-])cc3)n2)ccc1O; test: as §1; conditions: Homo sapiens
[9] = tested on: O=C(N/N=C/c1ccc(Cl)cc1)c1csc(Nc2ccc([N+](=O)[O-])cc2)n1; test: (§2) Uncompetitive inhibition of alpha-amylase (unknown origin) using starch as substrate assessed as decrease in Km incubated for 30 mins by UV-visible spectrophotometric analysis; conditions: Homo sapiens
[10] = tested on: O=C(N/N=C/c1ccc(O)cc1)c1csc(Nc2ccc([N+](=O)[O-])cc2)n1; test: as §2; conditions: Homo sapiens
[11] = tested on: COc1cc(/C=N/NC(=O)c2csc(Nc3ccc([N+](=O)[O-])cc3)n2)cc(OC)c1OC; test: as §2; conditions: Homo sapiens
[12] = tested on: COc1cc(/C=N/NC(=O)c2csc(Nc3ccc([N+](=O)[O-])cc3)n2)ccc1O; test: as §2; conditions: Homo sapiens
A549 [13] = test: Induction of ROS in human A549 cells at sub IC50 concentration incubated for 24 hrs by H2DCFDA dye based fluorescence assay (reference value: 33.28%); format: functional
MCF-10A = test: Cytotoxicity against human MCF-10A assessed as reduction in cell viability upto 10 uM incubated for 48 hrs by MTT assay; format: toxicity, cell-based
Alpha amylase [14] = target: T1, Alpha amylase; test: Inhibition of alpha-amylase (unknown origin) using starch as substrate incubated for 30 mins by microplate reader analysis

COc1ccc(Nc2nc(C(=O)N/N=C/c3ccc(OC)c(OC)c3)cs2)cc1
IC50 (MDA-MB-231): 3.22 µM
IC50 (HCT-116): 2.31 µM
IC50 (Alpha amylase [1]): 0.43 µM
IC50 (A549 [2]): 2.97 µM

O=C(N/N=C/c1ccc(O)c(O)c1)c1csc(Nc2ccccc2)n1
IC50 (MDA-MB-231): 14.9 µM
IC50 (HCT-116): 12.2 µM
IC50 (Alpha amylase [1]): 0.45 µM
IC50 (A549 [2]): 9.86 µM

O=C(N/N=C/c1ccc(Cl)cc1)c1csc(Nc2ccc(Cl)cc2)n1
IC50 (MDA-MB-231): > 25 µM
IC50 (HCT-116): 17.2 µM
IC50 (Alpha amylase [1]): 0.39 µM
IC50 (A549 [2]): 14 µM

COc1cc(/C=N/NC(=O)c2csc(Nc3ccccc3)n2)ccc1O
IC50 (MDA-MB-231): 14.5 µM
IC50 (HCT-116): 10.1 µM
IC50 (Alpha amylase [1]): 0.41 µM
IC50 (A549 [2]): 12 µM

COc1ccc(Nc2nc(C(=O)N/N=C/c3cccc(N)c3)cs2)cc1
IC50 (MDA-MB-231): > 25 µM
IC50 (HCT-116): 14.9 µM
IC50 (Alpha amylase [1]): 0.46 µM
IC50 (A549 [2]): 10 µM

Cc1ccc(-c2csc(N/N=C(/CSc3nnc4c(n3)[nH]c3ccccc34)c3ccc([N+](=O)[O-])cc3)n2)cc1
IC50 (Alpha amylase [3]): 1.2 µM

COc1cc(-c2nc3ccccc3[nH]2)ccc1OCC(=O)Nc1ccccc1C
IC50 (Alpha amylase [4]): 11 µM

COc1ccc(Nc2nc(C(=O)N/N=C/c3ccc(O)cc3)cs2)cc1
IC50 (MDA-MB-231): 9.87 µM
IC50 (HCT-116): 6.96 µM
IC50 (Alpha amylase [1]): 0.5 µM
IC50 (A549 [2]): 7.99 µM

O=C(N/N=C/c1ccccc1)c1csc(Nc2ccc([N+](=O)[O-])cc2)n1
IC50 (MDA-MB-231): 23.2 µM
IC50 (HCT-116): 7.32 µM
IC50 (Alpha amylase [1]): 0.37 µM
IC50 (A549 [2]): 11.2 µM

COc1ccc(Nc2nc(C(=O)N/N=C/c3ccc(Cl)cc3)cs2)cc1
IC50 (MDA-MB-231): 9.32 µM
IC50 (HCT-116): 12.2 µM
IC50 (Alpha amylase [1]): 0.41 µM
IC50 (A549 [2]): 10.3 µM

O=C(N/N=C/c1ccc(O)cc1)c1csc(Nc2ccccc2)n1
IC50 (MDA-MB-231): 8.33 µM
IC50 (HCT-116): 4.44 µM
IC50 (Alpha amylase [1]): 0.45 µM
IC50 (A549 [2]): 11.3 µM

O=C(N/N=C/c1ccc(O)cc1)c1csc(Nc2ccc(Cl)cc2)n1
IC50 (MDA-MB-231): 15.7 µM
IC50 (HCT-116): 5.67 µM
IC50 (Alpha amylase [1]): 0.41 µM
IC50 (A549 [2]): 7.43 µM

O=C(N/N=C/c1ccc(F)cc1)c1csc(Nc2ccc([N+](=O)[O-])cc2)n1
IC50 (MDA-MB-231): 8.33 µM
IC50 (HCT-116): 7.66 µM
IC50 (Alpha amylase [1]): 0.34 µM
IC50 (A549 [2]): 5.43 µM

COc1ccc(/C=N/NC(=O)c2csc(Nc3ccc(Cl)cc3)n2)cc1
IC50 (MDA-MB-231): 16.1 µM
IC50 (HCT-116): 13.2 µM
IC50 (Alpha amylase [1]): 0.4 µM
IC50 (A549 [2]): 11.3 µM

COc1ccc(/C=N/NC(=O)c2csc(Nc3ccc(OC)cc3)n2)cc1
IC50 (MDA-MB-231): 6.89 µM
IC50 (HCT-116): 7.83 µM
IC50 (Alpha amylase [1]): 0.47 µM
IC50 (A549 [2]): 7.88 µM

Cc1ccc([C@H]2C3CSCN3[C@@]3(C(=O)Nc4ccccc43)[C@]23N=C(c2ccccc2)OC3=O)cc1 (some centres undefined)
IC50 (Alpha amylase [4]): 1.76 µM

Alpha amylase (Homo sapiens) (from UniProt P0DUB6)
Vmax [5]: 1.56 µmol/min
Vmax [6]: 0.916 µmol/min
Vmax [7]: 3.24 µmol/min
Vmax [8]: 1.81 µmol/min
Km [9]: 804 µM
Km [10]: 830 µM
Km [11]: 1190 µM
Km [12]: 1030 µM

Cc1c(C(=O)N/N=C/c2ccc(O)c(O)c2)oc2ccccc12
IC50 (Alpha amylase [4]): 1.24 µM

C/C(=N\NC(=O)c1csc(Nc2ccc(Cl)cc2)n1)c1ccccn1
IC50 (MDA-MB-231): 13.2 µM
IC50 (HCT-116): 13.2 µM
IC50 (Alpha amylase [1]): 0.35 µM
IC50 (A549 [2]): 20.2 µM

COc1ccc(Nc2nc(C(=O)N/N=C/c3ccc(O)c(OC)c3)cs2)cc1
IC50 (MDA-MB-231): 4.95 µM
IC50 (HCT-116): 4.99 µM
IC50 (Alpha amylase [1]): 0.43 µM
IC50 (A549 [2]): 3.98 µM

COc1cc(/C=N/NC(=O)c2csc(Nc3ccc([N+](=O)[O-])cc3)n2)ccc1O
IC50 (MDA-MB-231): 4.98 µM
Activity (A549 [13]): 27.19%
IC50 (HCT-116): 2.43 µM
IC50 (Alpha amylase [1]): 0.24 µM
Activity (MCF-10A): Non-Toxic
IC50 (A549 [2]): 1.99 µM

COc1cc(/C=N/NC(=O)c2csc(Nc3ccc([N+](=O)[O-])cc3)n2)cc(OC)c1OC
IC50 (MDA-MB-231): 2.67 µM
Activity (A549 [13]): 22.34%
IC50 (HCT-116): 1.03 µM
IC50 (Alpha amylase [1]): 0.26 µM
Activity (MCF-10A): Non-Toxic
IC50 (A549 [2]): 1.62 µM

NNC(=O)c1csc(N/N=C/c2cccc(Br)c2)n1
IC50 (Alpha amylase [4]): 31 µg/mL

O=C1CS/C(=N\N=C\c2ccc(OS(=O)(=O)c3ccccc3[N+](=O)[O-])cc2)N1
IC50 (Alpha amylase [4]): 42.8 µM

Fc1cccc(-c2nc3scc(-c4ccc(Br)cc4)n3n2)c1
IC50 (Alpha amylase [14]): 3.2 µM

COc1cc2c(c(OC)c1OC)-c1ccc(OC)c(=O)cc1[C@@H](NC(C)=O)CC2 [COLCHICINE]
IC50 (MDA-MB-231): 1.98 µM
IC50 (HCT-116): 1.85 µM
IC50 (A549 [2]): 1.09 µM

COc1ccc(/C=N/NC(=O)c2csc(Nc3ccc([N+](=O)[O-])cc3)n2)cc1
IC50 (MDA-MB-231): 14 µM
IC50 (HCT-116): 4.65 µM
IC50 (Alpha amylase [1]): 0.32 µM
IC50 (A549 [2]): 8.97 µM

CC(=O)c1sc(N/N=C(/C)c2ccc(Cl)cc2)nc1C
IC50 (Alpha amylase [4]): 4.79 µM

O=C(N/N=C/c1cccc(F)c1)c1csc(Nc2ccccc2)n1
IC50 (MDA-MB-231): 7.77 µM
IC50 (HCT-116): 9.48 µM
IC50 (Alpha amylase [1]): 0.43 µM
IC50 (A549 [2]): 8.42 µM

COc1ccc(Nc2nc(C(=O)N/N=C/c3ccccc3)cs2)cc1
IC50 (MDA-MB-231): > 25 µM
IC50 (HCT-116): 4.32 µM
IC50 (Alpha amylase [1]): 0.49 µM
IC50 (A549 [2]): 6.32 µM

Cc1cccc(-c2nc3scc(-c4cccc([N+](=O)[O-])c4)n3n2)c1
IC50 (Alpha amylase [14]): 1.1 µM

O=C(N/N=C/c1ccc(Cl)cc1)c1csc(Nc2ccc([N+](=O)[O-])cc2)n1
IC50 (MDA-MB-231): 6.77 µM
Activity (A549 [13]): 28.62%
IC50 (HCT-116): 2.96 µM
IC50 (Alpha amylase [1]): 0.29 µM
Activity (MCF-10A): Non-Toxic
IC50 (A549 [2]): 2.63 µM

O=[N+]([O-])c1ccc(/C(CSc2nnc3c(n2)[nH]c2ccccc23)=N\Nc2nc(-c3ccc([N+](=O)[O-])cc3)co2)cc1
IC50 (Alpha amylase [3]): 1.2 µM

O=C(N/N=C/c1ccccc1)c1csc(Nc2ccc(Cl)cc2)n1
IC50 (MDA-MB-231): 3.89 µM
IC50 (HCT-116): 7.62 µM
IC50 (Alpha amylase [1]): 0.38 µM
IC50 (A549 [2]): 6.49 µM

COc1ccc(/C=N/NC(=O)c2csc(Nc3ccc(O)cc3)n2)cc1OC
IC50 (MDA-MB-231): 5.56 µM
IC50 (HCT-116): 5.99 µM
IC50 (Alpha amylase [1]): 0.39 µM
IC50 (A549 [2]): 4.98 µM

O=C(N/N=C/c1ccc(O)c(O)c1)c1csc(Nc2ccc(Cl)cc2)n1
IC50 (MDA-MB-231): 5.6 µM
IC50 (HCT-116): 5.43 µM
IC50 (Alpha amylase [1]): 0.39 µM
IC50 (A549 [2]): 5.09 µM

C#Cc1cccc(Nc2ncnc3cc(OCCOC)c(OCCOC)cc23)c1 [ERLOTINIB]
IC50 (MDA-MB-231): 2.54 µM
IC50 (HCT-116): 1.11 µM
IC50 (A549 [2]): 1.23 µM

COc1cc(/C=N/NC(=O)c2csc(Nc3ccc(Cl)cc3)n2)ccc1O
IC50 (MDA-MB-231): 6.55 µM
IC50 (HCT-116): 2.88 µM
IC50 (Alpha amylase [1]): 0.32 µM
IC50 (A549 [2]): 2.16 µM

O=C(N/N=C/c1ccccc1)c1csc(Nc2ccccc2)n1
IC50 (MDA-MB-231): > 25 µM
IC50 (HCT-116): 6.43 µM
IC50 (Alpha amylase [1]): 0.48 µM
IC50 (A549 [2]): 5.98 µM
